{"source": "patent US5075224A", "about": "“Prepro-LHRH C-terminal peptide DNA” (Genentech, Inc., priority 1991, dated 1991)", "system": "Pituitary cells from female Sprague-Dawley rats", "test": "LH and FSH release from rat pituitary cell culture", "format": "cell-based", "protocol": "Pituitary cells from female Sprague-Dawley rats were established in cell culture by the method of K. Nikolics et al., \"Peptides\" 2: 65-73 (1981). 1 ml of about 1×10^-8 molar concentration of GAP or LHRH in medium 199 (a nutrient medium) was added to a four day pituitary cell culture per 5×10^5 cells. After 4 hours incubation at 37° C. in 5 percent CO2 /95 percent air the cell culture supernatant fluids were assayed for release of LH and FSH.\nThe anterior pituitary cell culture from female Sprague-Dawley rats was prepared as described in Example 6. In FIG. 7A the indicated concentrations of GAP (open circles, 10^-11 M; open squares, 3×10^-11 M; closed circles 10^-10 M; open squares, triangle 10^-8 M) were incubated with 5×10^5 cells/ml medium in 24-well culture plates for the indicated time. Media were assayed for PRL and values were expressed in terms of rPRL-RP-2 reference protein (National Pituitary and Hormone Program). The points are means ± standard deviation of four parallel culture wells of which duplicate samples were assayed by RIA. Basal levels were determined from eight parallel wells. The curves shown represent data obtained in three to five independent cell cultures.", "key": {"[1]": {"details": "10^-8 M test sample, 4 hours incubation at 37° C., four day pituitary cell culture, supernatant"}}, "note": "Ends that are not written are not given here. Peptide text beside a SMILES is read from it."}
{"compound": "CC(C)C[C@H](NC(=O)[C@H](CC(=O)O)NC(=O)[C@H](CCCNC(=N)N)NC(=O)[C@H](CC(C)C)NC(=O)[C@@H]1CCCN1C(=O)[C@H](CO)NC(=O)[C@H](CCCNC(=N)N)NC(=O)[C@@H]1CCCN1C(=O)[C@H](CCC(N)=O)NC(=O)[C@H](Cc1c[nH]cn1)NC(=O)[C@@H](NC(=O)[C@@H](NC(=O)[C@@H](N)CS)[C@@H](C)O)[C@@H](C)O)C(=O)N[C@@H](CCCCN)C(=O)O", "note": "[CTP-core polypeptide of Example 4, NH2 -cys-thr-thr-his-gln-pro-arg-ser-pro-leu-arg-asp-leu-lys-COOH] (H-CTTHQPRSPLRDLK-OH)", "values": [{"measurement": "activity in LH and FSH release (in words)", "setting": "rat pituitary cells", "value": "active in LH and FSH release, albeit at higher concentrations than required for GAP"}]}
{"compound": "CC(C)C[C@H](NC(=O)CNC(=O)[C@H](Cc1ccc(O)cc1)NC(=O)[C@H](CO)NC(=O)[C@H](Cc1c[nH]c2ccccc12)NC(=O)[C@H](Cc1c[nH]cn1)NC(=O)[C@@H]1CCC(=O)N1)C(=O)N[C@@H](CCCNC(=N)N)C(=O)N1CCC[C@H]1C(=O)NCC(N)=O", "note": "[LHRH]", "values": [{"measurement": "FSH (pg)/5 × 10^5 cells", "setting": "[1]", "value": "11403 ± 350", "unit": "pg/5 × 10^5 cells"}, {"measurement": "LH (pg)/5 × 10^5 cells", "setting": "[1]", "value": "30503 ± 3342", "unit": "pg/5 × 10^5 cells"}, {"measurement": "EC50", "setting": "rat anterior pituitary cells, read-out: Half-maximal stimulation of LH release", "value": 800, "unit": "pM"}]}
{"compound": "DAENLIDSFQEIVKEVGQLAETQRFECTTHQPRSPLRDLKGALESLIEEETGQKKI [GAP]", "values": [{"measurement": "ED50 of stimulation of FSH secretion", "value": "~500", "unit": "pM"}]}
